Numbers after ± are expanded uncertainties.
Assays:
[1] = 101.33 kPa, Liquid, Vibrating tube method
[2] = activity coefficient (dimensionless); of the first substance listed, at infinite dilution; xn = mol fraction of the nth substance listed; conditions: 101 kPa, Liquid, Chromatography, x1 = 0

Q: With CCCC[N+]1(C)CCCC1.O=S(=O)([N-]S(=O)(=O)C(F)(F)F)C(F)(F)F as the compound, how does the mass density ([1]; 293.15 K) read?
A: The mass density was 1397.4 ± 0.6 kg/m3.

Q: What about the mass density ([1]; 303.15 K) of the same compound?
A: The mass density was 1389.2 ± 0.6 kg/m3.

Q: What about the mass density ([1]; 313.15 K) of the same compound?
A: Its mass density is 1381.1 ± 0.6 kg/m3.

Q: And the mass density ([1]; 323.15 K)?
A: The mass density was 1372.7 ± 0.6 kg/m3.

Q: And the mass density ([1]; 333.15 K)?
A: Its mass density is 1364.1 ± 0.6 kg/m3.

Q: For CCC[N+]1(C)CCCC1.O=S(=O)([N-]S(=O)(=O)C(F)(F)F)C(F)(F)F, which mass density ([1]; 293.15 K) is on record?
A: The mass density was 1430.1 ± 0.6 kg/m3.

Q: What about the mass density ([1]; 303.15 K) of the same compound?
A: Its mass density is 1421.8 ± 0.6 kg/m3.

Q: And the mass density ([1]; 313.15 K)?
A: The mass density was 1412.8 ± 0.6 kg/m3.

Q: And the mass density ([1]; 323.15 K)?
A: The mass density was 1403.8 ± 0.6 kg/m3.

Q: What about the mass density ([1]; 333.15 K) of the same compound?
A: Its mass density is 1394.4 ± 0.6 kg/m3.

Q: For CCCO [propan-1-ol] + CCC[N+]1(C)CCCC1.O=S(=O)([N-]S(=O)(=O)C(F)(F)F)C(F)(F)F, which activity coefficient ([2]; 323.15 K) is on record?
A: The activity coefficient was 2.17 ± 0.15.

Q: What about the activity coefficient ([2]; 333.15 K) of the same compound?
A: Its activity coefficient is 1.95 ± 0.13.

Q: What about the activity coefficient ([2]; 343.15 K) of the same compound?
A: Its activity coefficient is 1.79 ± 0.12.

Q: What does the source list for CC(C)O [propan-2-ol] + CCCC[N+]1(C)CCCC1.O=S(=O)([N-]S(=O)(=O)C(F)(F)F)C(F)(F)F?
A: activity coefficient ([2]; 323.15 K): 1.9 ± 0.13; activity coefficient ([2]; 333.15 K): 1.72 ± 0.12; activity coefficient ([2]; 343.15 K): 1.57 ± 0.1

Q: Which activity coefficient ([2]; 323.15 K) does the source give for CC(C)O [propan-2-ol] + CCC[N+]1(C)CCCC1.O=S(=O)([N-]S(=O)(=O)C(F)(F)F)C(F)(F)F here?
A: The activity coefficient was 1.92 ± 0.13.

Q: And the activity coefficient ([2]; 333.15 K)?
A: The activity coefficient was 1.79 ± 0.12.

Q: And the activity coefficient ([2]; 343.15 K)?
A: Its activity coefficient is 1.62 ± 0.11.

Q: Which activity coefficient ([2]; 323.15 K) does the source give for c1ccncc1 [pyridine] + CCCC[N+]1(C)CCCC1.O=S(=O)([N-]S(=O)(=O)C(F)(F)F)C(F)(F)F here?
A: Its activity coefficient is 0.59 ± 0.04.

Q: What about the activity coefficient ([2]; 333.15 K) of the same compound?
A: Its activity coefficient is 0.59 ± 0.04.

Q: And the activity coefficient ([2]; 343.15 K)?
A: The activity coefficient was 0.59 ± 0.04.

Q: For c1ccncc1 [pyridine] + CCC[N+]1(C)CCCC1.O=S(=O)([N-]S(=O)(=O)C(F)(F)F)C(F)(F)F, which activity coefficient ([2]; 323.15 K) is on record?
A: Its activity coefficient is 0.63 ± 0.04.

Q: What about the activity coefficient ([2]; 333.15 K) of the same compound?
A: The activity coefficient was 0.63 ± 0.04.

Q: What about the activity coefficient ([2]; 343.15 K) of the same compound?
A: Its activity coefficient is 0.64 ± 0.04.

Q: With ClC(Cl)(Cl)Cl [tetrachloromethane] + CCCC[N+]1(C)CCCC1.O=S(=O)([N-]S(=O)(=O)C(F)(F)F)C(F)(F)F as the compound, how does the activity coefficient ([2]; 323.15 K) read?
A: Its activity coefficient is 2.44 ± 0.17.

Q: And the activity coefficient ([2]; 333.15 K)?
A: Its activity coefficient is 2.45 ± 0.17.

Q: And the activity coefficient ([2]; 343.15 K)?
A: Its activity coefficient is 2.47 ± 0.17.

Q: What does the source list for ClC(Cl)(Cl)Cl [tetrachloromethane] + CCC[N+]1(C)CCCC1.O=S(=O)([N-]S(=O)(=O)C(F)(F)F)C(F)(F)F?
A: activity coefficient ([2]; 323.15 K): 2.55 ± 0.17; activity coefficient ([2]; 333.15 K): 2.62 ± 0.18; activity coefficient ([2]; 343.15 K): 2.64 ± 0.18

Q: Which activity coefficient ([2]; 323.15 K) does the source give for c1ccsc1 [thiophene] + CCCC[N+]1(C)CCCC1.O=S(=O)([N-]S(=O)(=O)C(F)(F)F)C(F)(F)F here?
A: Its activity coefficient is 0.82 ± 0.05.

Q: What about the activity coefficient ([2]; 333.15 K) of the same compound?
A: Its activity coefficient is 0.83 ± 0.05.

Q: What about the activity coefficient ([2]; 343.15 K) of the same compound?
A: Its activity coefficient is 0.84 ± 0.05.

Q: What does the source list for c1ccsc1 [thiophene] + CCC[N+]1(C)CCCC1.O=S(=O)([N-]S(=O)(=O)C(F)(F)F)C(F)(F)F?
A: activity coefficient ([2]; 323.15 K): 0.86 ± 0.06; activity coefficient ([2]; 333.15 K): 0.88 ± 0.06; activity coefficient ([2]; 343.15 K): 0.89 ± 0.06

Q: Which activity coefficient ([2]; 323.15 K) does the source give for Cc1ccccc1 [toluene] + CCCC[N+]1(C)CCCC1.O=S(=O)([N-]S(=O)(=O)C(F)(F)F)C(F)(F)F here?
A: The activity coefficient was 1.25 ± 0.08.

Q: And the activity coefficient ([2]; 333.15 K)?
A: The activity coefficient was 1.27 ± 0.08.

Q: And the activity coefficient ([2]; 343.15 K)?
A: Its activity coefficient is 1.29 ± 0.08.

Q: Which activity coefficient ([2]; 323.15 K) does the source give for Cc1ccccc1 [toluene] + CCC[N+]1(C)CCCC1.O=S(=O)([N-]S(=O)(=O)C(F)(F)F)C(F)(F)F here?
A: Its activity coefficient is 1.37 ± 0.09.

Q: And the activity coefficient ([2]; 333.15 K)?
A: Its activity coefficient is 1.38 ± 0.09.

Q: What about the activity coefficient ([2]; 343.15 K) of the same compound?
A: The activity coefficient was 1.45 ± 0.1.

Q: For ClC(Cl)Cl [trichloromethane] + CCCC[N+]1(C)CCCC1.O=S(=O)([N-]S(=O)(=O)C(F)(F)F)C(F)(F)F, which activity coefficient ([2]; 323.15 K) is on record?
A: The activity coefficient was 0.83 ± 0.05.

Q: And the activity coefficient ([2]; 333.15 K)?
A: The activity coefficient was 0.86 ± 0.06.

Q: What about the activity coefficient ([2]; 343.15 K) of the same compound?
A: Its activity coefficient is 0.88 ± 0.06.

Q: What does the source list for ClC(Cl)Cl [trichloromethane] + CCC[N+]1(C)CCCC1.O=S(=O)([N-]S(=O)(=O)C(F)(F)F)C(F)(F)F?
A: activity coefficient ([2]; 323.15 K): 0.85 ± 0.05; activity coefficient ([2]; 333.15 K): 0.91 ± 0.06; activity coefficient ([2]; 343.15 K): 0.96 ± 0.06

Q: With CCN(CC)CC [triethylamine] + CCCC[N+]1(C)CCCC1.O=S(=O)([N-]S(=O)(=O)C(F)(F)F)C(F)(F)F as the compound, how does the activity coefficient ([2]; 323.15 K) read?
A: The activity coefficient was 7.07 ± 0.48.

Q: And the activity coefficient ([2]; 333.15 K)?
A: Its activity coefficient is 7.07 ± 0.48.

Q: And the activity coefficient ([2]; 343.15 K)?
A: The activity coefficient was 7.09 ± 0.48.

Q: Which results are given for CCN(CC)CC [triethylamine] + CCC[N+]1(C)CCCC1.O=S(=O)([N-]S(=O)(=O)C(F)(F)F)C(F)(F)F?
A: activity coefficient ([2]; 323.15 K): 8.98 ± 0.61; activity coefficient ([2]; 333.15 K): 8.1 ± 0.55; activity coefficient ([2]; 343.15 K): 7.19 ± 0.49

Q: What does the source list for CCCCCCCCCCC [undecane] + CCCC[N+]1(C)CCCC1.O=S(=O)([N-]S(=O)(=O)C(F)(F)F)C(F)(F)F?
A: activity coefficient ([2]; 323.15 K): 76.9 ± 5.3; activity coefficient ([2]; 333.15 K): 68.2 ± 4.7; activity coefficient ([2]; 343.15 K): 61.1 ± 4.2

Q: For CCCCCCCCCCC [undecane] + CCC[N+]1(C)CCCC1.O=S(=O)([N-]S(=O)(=O)C(F)(F)F)C(F)(F)F, which activity coefficient ([2]; 323.15 K) is on record?
A: Its activity coefficient is 108 ± 7.4.

Q: What about the activity coefficient ([2]; 333.15 K) of the same compound?
A: The activity coefficient was 92.8 ± 6.4.

Q: And the activity coefficient ([2]; 343.15 K)?
A: The activity coefficient was 85.1 ± 5.8.

Reference: the NIST ThermoML archive (doi:10.1021/je4001894)
